These are literature values, as cited in patent US6436417B1, “Acne treatment compositions” (Blistex Inc., priority 2001, dated 2002).

The conditions of data set [1]: in sunlight and in the presence of ferric salts.
Assay in data set [2]: not given
This is another data set of the same source.

Turning to `O=C(O)c1ccccc1O` [Salicylic acid, salicylic acid], where the note is “1 gram in about 460 ml of water at room temperature”, the “pH of the aqueous solution” value was 2.4. Further, the “solubility in water (volume of water dissolving 1 gram)” value (1 gram, water, room temperature) is “about 460 ml”. Also, the solubility in water entry (water, room temperature) is given as “about 0.2 % by weight”. In addition, in data set [1], the stability to discoloration result is listed as “strong tendency to discolor”. Moreover, in data set [2], the “solubility in alcohol (volume of alcohol dissolving 1 gram)” value is on record as “about 2.7 ml”.
